Results taken from patent US20220235049A1, “SUBSTITUTED PYRROLO [2, 3-b] PYRIDINE AND PYRAZOLO [3,4-b] PYRIDINE DERIVATIVES AS PROTEIN KINASE INHIBITORS” (Fochon Pharmaceuticals, Ltd., priority 2019, published 2022).
pIC50: −log10 of the molar value. Read-outs that look alike come from different tables or passages of the source. Values belong to the compound of their own block, whether it stands above or below them.

Legend:
[1] = test system: DOHH2 cells; assay: Cell proliferation assay in DOHH2 cells (MTS); assay type: cell-based; settings: Homo sapiens, DOHH-2, 120 h
How it was run: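 DOHH2 cells at 5000/well were treated with compound at 1.5–10000 nM for 120 h at 37 °C, as a proxy for BTK inhibition. Proliferation was read by MTS for 2 h, stopped with SDS, and absorbance measured at 490 nm with 650 nm reference; IC50 was fitted from the curve.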

[2] = biological target: T1, BTK (C481S) (Homo sapiens, UniProt Q06187, C481S); assay: Kinase assay of BTK (C481S), [33P]-ATP filter-binding, at Reaction Biology Corporation; assay type: biochemical; settings: 10 μM ATP, 20 min preincubation, 120 min reaction
T1 construct: purchased SignalChem B10-12CH
Description: The kinase activity of BTK (C481S) was assayed at Reaction Biology Corporation. The substrate in the BTK (C481S) reaction, pEY (poly[Glu:Tyr] (4:1)) (Sigma, Cat. #P7244-250MG), was prepared in fresh reaction buffer (20 mM Hepes (pH 7.5), 10 mM MgCl2, 1 mM EGTA, 0.02% Brij35, 0.02 mg/ml BSA, 0.1 mM Na3VO4, 2 mM DTT, 1% DMSO). BTK(C481S) (SignalChem, Cat. #B10-12CH) was delivered into the substrate solution and mixed gently. The final concentrations of BTK (C481S) and the substrate in the reaction mixture were 6 nM and 0.2 mg/ml, respectively. Compounds were tested in 10-point concentration/response mode with 3-fold serial dilution steps starting at 1 μM.
Compounds in 100% DMSO were delivered into the kinase reaction mixture by acoustic liquid delivery technology (Echo550; nanoliter range) and incubated for 20 min at room temperature. 10 μM [^33P]-ATP (ATP: Sigma, Cat #: A7699; [^33P]-ATP: Hartmann Analytic, Cat #: SCF-301-12) was delivered into the reaction mixture to initiate the reaction. The mixture was incubated for 120 min at room temperature. Radioactivity was detected utilizing a proprietary filter-binding method. Kinase activity data were expressed as the percent remaining kinase activity in test samples compared to vehicle (DMSO) reactions. IC50 values were obtained using GraphPad Prism software.
Select compounds prepared as described above were assayed according to the biological procedures described herein.

[3] = Pharmacokinetics in male Sprague-Dawley rats; assay type: in vivo; settings: rat; for AUC(0-inf) / AUC(0-t) / clearance / half-life / Cmax / MRT last / Vd / Tmax: male, Sprague-Dawley, plasma; for Cmax: read-out: Cmax/C0; for MRT last: read-out: MRT0-t; for Vd: read-out: Vdss
Description: The purpose of this study was to determine the pharmacokinetics of Example 71 and Example 75 in male Sprague-Dawley rats (Supplied by Beijing Vital River Laboratory Animal Technology Co., Ltd.).
Animals in Group 1 were administered with Example 71 by single intravenous bolus injection at 1 mg/kg, which was formulated in 60% Phosal 50 PG (Lipoid, Batch #368315-3180028/009): 30% PEG400 (Sigma, Batch #MKCH6281): 10% Ethanol (Merck, Batch #K48244883634) at 1 mg/mL as a solution. Animals in Group 2 were administered with Example 71 by single oral gavage (PO) administration at 5 mg/kg, which was formulated in 60% Phosal 50 PG (Lipoid, Batch #368315-3180028/009): 30% PEG400 (Sigma, Batch #MKCH6281): 10% Ethanol (Merck, Batch #K48244883634) at 1 mg/mL as a solution. Blood samples were collected at 0.083, 0.25, 0.5, 1, 2, 4, 8, 12 and 24 hours post-dose. Concentrations of Example 71 in plasma were determined by LC/MS/MS (LC: Waters UPLC; MS: API4000).
Animals in Group 3 were administered with Example 75 by single intravenous bolus injection at 2 mg/kg, which was formulated in 10% DMSO (Sigma, Batch #LPC0S181): 60% PEG400 (Sigma, Batch #MKCH6281): 30% water at 2 mg/mL as a solution. Animals in Group 4 were administered with Example 75 by single oral gavage (PO) administration at 10 mg/kg, which was formulated in 10% DMSO (Sigma, Batch #LPC0S181): 60% PEG400 (Sigma, Batch #MKCH6281): 30% water at 2 mg/mL as a solution. Blood samples were collected at 0.083, 0.25, 0.5, 1, 2, 4, 8, 12 and 24 hours post-dose. Concentrations of Example 75 in plasma were determined by LC/MS/MS (LC: Waters UPLC; MS: Triple Quad 6500 plus).

T1 sequence (Q06187 whole entry C481S): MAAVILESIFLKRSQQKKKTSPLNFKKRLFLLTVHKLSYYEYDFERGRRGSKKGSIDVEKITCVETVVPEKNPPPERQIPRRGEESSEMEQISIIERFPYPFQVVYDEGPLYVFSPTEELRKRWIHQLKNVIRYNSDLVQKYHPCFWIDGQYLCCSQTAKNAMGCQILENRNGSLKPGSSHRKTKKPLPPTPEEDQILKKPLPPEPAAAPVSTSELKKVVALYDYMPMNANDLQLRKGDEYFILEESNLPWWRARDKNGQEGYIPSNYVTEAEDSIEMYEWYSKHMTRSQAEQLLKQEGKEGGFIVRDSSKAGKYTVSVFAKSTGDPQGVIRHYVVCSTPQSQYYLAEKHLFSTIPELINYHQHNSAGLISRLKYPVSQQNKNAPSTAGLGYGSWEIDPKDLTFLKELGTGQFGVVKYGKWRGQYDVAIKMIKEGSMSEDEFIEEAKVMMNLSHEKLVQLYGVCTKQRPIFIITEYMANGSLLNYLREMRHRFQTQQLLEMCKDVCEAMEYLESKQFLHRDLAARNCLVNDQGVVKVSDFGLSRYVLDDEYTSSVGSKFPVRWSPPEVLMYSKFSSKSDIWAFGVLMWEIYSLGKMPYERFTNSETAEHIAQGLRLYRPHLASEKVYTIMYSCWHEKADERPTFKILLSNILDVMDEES

Structure (SMILES): O=C(c1ccc(Oc2ccccc2)cc1Cl)c1c[nH]c2nccc(N[C@@H]3CC[C@@H](CO)OC3)c12 [Example 2, (2-Chloro-4-phenoxyphenyl)(4-(((3R,6S)-6-(hydroxymethyl)tetrahydro-2H-pyran-3-yl)amino)-1H-pyrrolo[2,3-b]pyridin-3-yl)methanone]
pIC50 [1]: 7.59 | pIC50 [2]: 8.65

Structure (SMILES): COc1cnc2[nH]cc(C(=O)c3ccc(Oc4ccccc4)cc3Cl)c2c1N[C@@H]1CC[C@@H](CO)OC1 [Example 27, (2-chloro-4-phenoxyphenyl)(4-(((3R,6S)-6-(hydroxymethyl)tetrahydro-2H-pyran-3-yl)amino)-5-methoxy-1H-pyrrolo[2,3-b]pyridin-3-yl)methanone]
pIC50 [1]: 9.00 | pIC50 [2]: 8.95

Structure (SMILES): CCOc1cnc2[nH]cc(C(=O)c3ccc(Oc4ccccc4F)cc3)c2c1N[C@@H]1CC[C@@H](CO)OC1 [Example 63, (5-ethoxy-4-(((3R,6S)-6-(hydroxymethyl)tetrahydro-2H-pyran-3-yl)amino)-1H-pyrrolo[2,3-b]pyridin-3-yl)(4-(2-fluorophenoxy)phenyl)methanone]
pIC50 [1]: 9.00 | pIC50 [2]: 9.00

Structure (SMILES): CCOc1cnc2[nH]cc(C(=O)c3ccc(Oc4ccccc4F)cc3F)c2c1N[C@@H]1CC[C@@H](CO)OC1 [Example 71, (5-ethoxy-4-(((3R,6S)-6-(hydroxymethyl)tetrahydro-2H-pyran-3-yl)amino)-1H-pyrrolo[2,3-b]pyridin-3-yl)(2-fluoro-4-(2-fluorophenoxy)phenyl)methanone]
AUC(0-inf) ([3]; iv, 1 mg/kg): 3770 ng·h/mL | AUC(0-t) ([3]; iv, 1 mg/kg): 3760 ng·h/mL | clearance ([3]; iv, 1 mg/kg): 4.7 mL/min/kg | half-life ([3]; iv, 1 mg/kg): 3.07 h | Cmax ([3]; iv, 1 mg/kg): 4360 ng/mL | MRT last ([3]; iv, 1 mg/kg): 1.93 h | Vd ([3]; iv, 1 mg/kg): 0.541 L/kg | AUC(0-inf) ([3]; po, 5 mg/kg): 10100 ng·h/mL | AUC(0-t) ([3]; po, 5 mg/kg): 10100 ng·h/mL | Tmax ([3]; po, 5 mg/kg): 4 h | half-life ([3]; po, 5 mg/kg): 2.74 h | Cmax ([3]; po, 5 mg/kg): 1680 ng/mL | MRT last ([3]; po, 5 mg/kg): 5.26 h | F ([3]; po 5 mg/kg vs iv 1 mg/kg): 53.7% | pIC50 [1]: 9.00 | pIC50 [2]: 9.11

Structure (SMILES): COc1cnc2[nH]cc(C(=O)c3ccc(Oc4ccccc4F)cc3F)c2c1N[C@@H]1CC[C@@H](CO)OC1 [Example 75, (2-fluoro-4-(2-fluorophenoxy)phenyl)(4-(((3R,6S)-6-(hydroxymethyl)tetrahydro-2H-pyran-3-yl)amino)-5-methoxy-1H-pyrrolo[2,3-b]pyridin-3-yl)methanone]
AUC(0-inf) ([3]; iv, 2 mg/kg): 10200 ng·h/mL | AUC(0-t) ([3]; iv, 2 mg/kg): 10100 ng·h/mL | clearance ([3]; iv, 2 mg/kg): 3.33 mL/min/kg | half-life ([3]; iv, 2 mg/kg): 2.56 h | Cmax ([3]; iv, 2 mg/kg): 6350 ng/mL | MRT last ([3]; iv, 2 mg/kg): 2.43 h | Vd ([3]; iv, 2 mg/kg): 0.489 L/kg | AUC(0-inf) ([3]; po, 10 mg/kg): 29000 ng·h/mL | AUC(0-t) ([3]; po, 10 mg/kg): 28900 ng·h/mL | Tmax ([3]; po, 10 mg/kg): 2.83 h | half-life ([3]; po, 10 mg/kg): 2.8 h | Cmax ([3]; po, 10 mg/kg): 4140 ng/mL | MRT last ([3]; po, 10 mg/kg): 5.58 h | F ([3]; po 10 mg/kg vs iv 2 mg/kg): 57.1% | pIC50 [1]: 9.00

Structure (SMILES): COc1cnc2[nH]cc(C(=O)c3ccc(Oc4ccccn4)cc3F)c2c1N[C@@H]1CC[C@@H](CO)OC1 [Example 196, (2-fluoro-4-(pyridin-2-yloxy)phenyl)(4-(((3R,6S)-6-(hydroxymethyl)tetrahydro-2H-pyran-3-yl)amino)-5-methoxy-1H-pyrrolo[2,3-b]pyridin-3-yl)methanone]
pIC50 [1]: 7.36

Structure (SMILES): COc1cnc2[nH]cc(C(=O)c3c(F)cc(Oc4ccccn4)cc3F)c2c1N[C@@H]1CC[C@@H](CO)OC1 [Example 198, (2,6-difluoro-4-(pyridin-2-yloxy)phenyl)(4-(((3R,6S)-6-(hydroxymethyl)tetrahydro-2H-pyran-3-yl)amino)-5-methoxy-1H-pyrrolo[2,3-b]pyridin-3-yl)methanone]
pIC50 [1]: 7.28

Now from value to compound, other results behind:

pIC50 [2]: 9.02
Structure (SMILES): CCOc1cnc2[nH]cc(C(=O)c3ccc(Oc4ccccc4)cc3C)c2c1N[C@@H]1CC[C@@H](CO)OC1 [Example 127, (5-ethoxy-4-(((3R,6S)-6-(hydroxymethyl)tetrahydro-2H-pyran-3-yl)amino)-1H-pyrrolo[2,3-b]pyridin-3-yl)(2-methyl-4-phenoxyphenyl)methanone]
pIC50 [1]: 9.00

pIC50 [2]: 9.01
Structure (SMILES): CCOc1cnc2[nH]cc(C(=O)c3ccc(Oc4ccccc4)cc3Cl)c2c1N[C@@H]1CC[C@@H](CO)OC1 [Example 128, (2-chloro-4-phenoxyphenyl)(5-ethoxy-4-(((3R,6S)-6-(hydroxymethyl)tetrahydro-2H-pyran-3-yl)amino)-1H-pyrrolo[2,3-b]pyridin-3-yl)methanone]
pIC50 [1]: 9.00

pIC50 [2]: 9.34
Structure (SMILES): CCOc1cnc2[nH]cc(C(=O)c3ccc(Oc4ccccc4)cc3F)c2c1N[C@@H]1CC[C@@H](CO)OC1 [Example 176, (5-ethoxy-4-(((3R,6S)-6-(hydroxymethyl)tetrahydro-2H-pyran-3-yl)amino)-1H-pyrrolo[2,3-b]pyridin-3-yl)(2-fluoro-4-phenoxyphenyl)methanone]
pIC50 [1]: 9.00
